Counter-ions that a name gives are not always drawn. Like-named read-outs stand apart in the source and are kept apart here.
How the values were obtained:
[1] = Solubility of compounds in sodium chloride solution; assay type: physicochemical; conditions: saline or isotonic, thermodynamic from solid, ambient temperature
Protocol: Compound solubility was measured in water, 0.12 or 0.9% sodium chloride solution at ambient temperature for up to 10 days. Using a UV/Visable Spectrophotometer and applying Beer's Law with the calculated extinction coefficient of amiloride (18.6 mM, absorbance values at 362 nm taken from D. Mazzo 1986) the free base concentration in solution was calculated at specified time points. All samples were stored for the duration of the experiment in a single/closure system consisting of glass vials with a stopper-top closure. The vials were maintained at ambient temperature, in the dark, and in the upright position. Compound stability was measured using reverse phase high performance liquid chromatography on the final filtered pulled sample (day 10).
Table 2 gives the solubility in saline of selected amide bis methane sulfonic acid salts and compares them to the mono addition methane sulfonic acid salt of PSA 9714.

[2] = target: T1, ENaC (epithelial sodium channel) (Canis lupus familiaris, UniProt A0A8I3MKE6+A0A8I3Q679+Q95165); assay: Epithelial sodium channel blocking activity (short circuit current, Ussing chambers) in canine bronchial epithelium; assay type: cell-based; conditions: for Fold Amiloride (PSA4022 = 100): relative potency, PSA4022 = 100, using IC50 from PSA4022 in same run
T1 construct: endogenous in cells; host or cells: primary canine bronchial (airway) epithelial cells cultured at air-liquid interface, mounted in Ussing chambers
T1 sequence (A0A8I3Q679 1-649): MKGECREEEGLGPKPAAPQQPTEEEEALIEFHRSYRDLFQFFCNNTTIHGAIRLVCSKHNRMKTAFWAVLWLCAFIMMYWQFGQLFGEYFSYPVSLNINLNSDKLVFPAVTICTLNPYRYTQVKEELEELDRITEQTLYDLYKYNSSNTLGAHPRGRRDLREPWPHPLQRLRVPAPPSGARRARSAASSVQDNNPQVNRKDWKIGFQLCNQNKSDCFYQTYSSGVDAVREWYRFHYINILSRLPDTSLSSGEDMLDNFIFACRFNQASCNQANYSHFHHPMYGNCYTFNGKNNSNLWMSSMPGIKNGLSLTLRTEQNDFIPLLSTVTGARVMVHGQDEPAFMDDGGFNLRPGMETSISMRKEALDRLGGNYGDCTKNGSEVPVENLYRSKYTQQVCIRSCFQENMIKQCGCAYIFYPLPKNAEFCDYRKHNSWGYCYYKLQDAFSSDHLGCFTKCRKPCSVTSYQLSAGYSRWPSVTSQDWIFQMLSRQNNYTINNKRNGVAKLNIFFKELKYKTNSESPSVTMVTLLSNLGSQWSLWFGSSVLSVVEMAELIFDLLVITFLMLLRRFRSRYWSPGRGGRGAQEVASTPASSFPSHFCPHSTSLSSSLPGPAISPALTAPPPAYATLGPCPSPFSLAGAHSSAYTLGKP
T1 sequence (Q95165 1-641): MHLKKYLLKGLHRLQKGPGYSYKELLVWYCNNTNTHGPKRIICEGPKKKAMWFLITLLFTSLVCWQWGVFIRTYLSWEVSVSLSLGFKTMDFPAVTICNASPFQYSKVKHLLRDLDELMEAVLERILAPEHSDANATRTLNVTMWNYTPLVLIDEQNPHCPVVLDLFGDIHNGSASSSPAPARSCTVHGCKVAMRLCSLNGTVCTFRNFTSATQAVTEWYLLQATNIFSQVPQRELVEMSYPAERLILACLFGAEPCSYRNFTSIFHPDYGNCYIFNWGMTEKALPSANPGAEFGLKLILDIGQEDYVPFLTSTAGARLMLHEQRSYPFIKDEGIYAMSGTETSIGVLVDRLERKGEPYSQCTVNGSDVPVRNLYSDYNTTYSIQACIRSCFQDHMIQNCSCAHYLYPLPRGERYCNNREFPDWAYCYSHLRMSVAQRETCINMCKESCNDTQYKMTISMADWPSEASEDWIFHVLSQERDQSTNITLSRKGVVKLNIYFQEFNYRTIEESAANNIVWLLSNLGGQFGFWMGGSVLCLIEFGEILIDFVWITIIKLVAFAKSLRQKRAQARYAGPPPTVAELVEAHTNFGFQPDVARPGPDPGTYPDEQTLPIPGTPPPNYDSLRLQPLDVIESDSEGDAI
T1 sequence (A0A8I3MKE6 1-646): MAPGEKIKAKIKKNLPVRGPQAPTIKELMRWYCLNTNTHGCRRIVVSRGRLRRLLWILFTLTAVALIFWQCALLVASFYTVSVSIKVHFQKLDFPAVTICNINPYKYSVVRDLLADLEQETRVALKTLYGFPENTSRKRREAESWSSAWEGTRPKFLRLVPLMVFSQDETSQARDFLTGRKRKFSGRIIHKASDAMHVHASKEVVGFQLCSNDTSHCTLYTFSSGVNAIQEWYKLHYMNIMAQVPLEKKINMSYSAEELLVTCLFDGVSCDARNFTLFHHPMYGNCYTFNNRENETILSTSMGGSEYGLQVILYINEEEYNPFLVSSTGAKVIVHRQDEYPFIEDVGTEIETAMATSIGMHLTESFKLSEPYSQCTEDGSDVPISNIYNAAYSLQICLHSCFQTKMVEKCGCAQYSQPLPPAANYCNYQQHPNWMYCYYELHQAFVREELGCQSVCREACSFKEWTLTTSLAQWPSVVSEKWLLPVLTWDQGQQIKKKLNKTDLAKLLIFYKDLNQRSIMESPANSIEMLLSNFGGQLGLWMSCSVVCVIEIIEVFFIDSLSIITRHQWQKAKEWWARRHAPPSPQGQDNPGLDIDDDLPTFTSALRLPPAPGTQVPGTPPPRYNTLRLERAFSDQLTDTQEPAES
Protocol: One assay used to assess mechanism of action and/or potency of the compounds of Formula I involves the determination of lumenal drug inhibition of airway epithelial sodium currents measured under short circuit current (ISC) using airway epithelial monolayers mounted in Ussing chambers. Cells obtained from freshly excised human, dog or sheep airways are seeded onto porous 0.4 micron Snapwell™ Inserts (CoStar), cultured at air-liquid interface (ALI) conditions in hormonally defined media, and assayed for sodium transport activity (ISC in μA/cm^2) while bathed in Krebs Bicarbonate Ringer (KBR) in Ussing chambers. All test drug additions are to the lumenal bath with half-log dose addition protocols (from 1×10^−11 M to 3×10^−5 M), and the cumulative change in ISC (inhibition) recorded. All drugs are prepared in dimethyl sulfoxide as stock solutions at a concentration of 1×10^−2 M and stored at −20° C. Six preparations are typically run in parallel; one preparation per run incorporates a positive control. All data from the voltage clamps are collected via a computer interface and analyzed off-line.
Dose-effect relationships for all compounds are considered and analyzed by the Prism 3.0 program. EC50 values, maximal effective concentrations are calculated and compared to positive controls.
Utilizing the tests set forth above, Table 3 summaries the ENaC blocking ability of some of the amides of this invention when assayed in canine bronchial epithelium.

[3] = 0.12% sodium chloride solution, 0.12% NaCl solution, read-out: S1 = Solubility in 0.12% NaCl Solution

Row | Compound | melting point [°C] | IC50 [2] [nM] | other results
1 | N=C(NCCCCc1ccc(OCC(N)=O)cc1)NC(=O)c1nc(Cl)c(N)nc1N [compound 9714] | – | 15.2 | solubility [1, 3]: < 100 µg/mL; solubility ([1]; 0.9% sodium chloride solution (normal saline), 0.9% NaCl solution (normal saline), read-out: S2 = Solubility in 0.9% NaCl Solution (normal Saline)): < 100 µg/mL; Fold Amiloride (PSA4022 = 100) [2]: 62
2 | CS(=O)(=O)O.CS(=O)(=O)O.N=C(NCCCCc1ccc(C(=O)N2CCNCC2)cc1)NC(=O)c1nc(Cl)c(N)nc1N [PSA23607, N-(3,5-Diamino-6-chloropyrazine-2-carbonyl)-N′-{4-[4-(piperazine-1-carbonyl)phenyl]butyl}guanidine bis-methanesulfonate] | 122 to 124 | 12.5 ± 0.5 | solubility ([1]; 0.12% NaCl solution, read-out: S1 = Solubility in 0.12% NaCl Solution): > 5000 µg/mL
3 | N=C(NCCCCc1ccc(OCC(=O)NCCN)cc1)NC(=O)c1nc(Cl)c(N)nc1N [compound 237778] | – | 5 ± 2 | solubility [1, 3]: > 5000 µg/mL; Fold Amiloride (PSA4022 = 100) [2]: 146
4 | CN(C)CCCNC(=O)COc1ccc(CCCCNC(=N)NC(=O)c2nc(Cl)c(N)nc2N)cc1 (as salt: methanesulfonate) | 187 to 190 | – | –

Now from value to compound, other results behind:

Row | melting point [°C] | Compound | IC50 [2] [nM] | other results
5 | 100 to 102 | N=C(NCCCCc1ccc(OCC(=O)OCC2CCNCC2)cc1)NC(=O)c1nc(Cl)c(N)nc1N (as salt: hydrochloride) | – | –
6 | 60 to 62 | N=C(NCCCCc1ccc(OCC(=O)OCCN2CCCCC2)cc1)NC(=O)c1nc(Cl)c(N)nc1N | – | –
7 | 66 to 68 | N=C(NCCCCc1ccc(OCC(=O)OCCN)cc1)NC(=O)c1nc(Cl)c(N)nc1N (as salt: hydrochloride) | – | –

Source: patent US20070021439A1, “Methods of reducing risk of infection from pathogens with soluble amide and ester pyrazinoylguanidine sodium channel blockers” (Parion Sciences, Inc., priority 2005, published 2007)
